According to patent US20100210649A1, “PYRIDAZINONES AND FURAN-CONTAINING COMPOUNDS” (Sloan-Kettering Institute for Cancer Research, priority 2006, published 2010):
Where two headings read alike, the source gives them in different places.

How the values were obtained:
H1650 = assay: Non Small Cell Lung Cancer proliferation assay (Alamar Blue reduction), H1650; format: cell-based, human; settings: Homo sapiens
In short: (§1)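 Human NSCLC cells were seeded at 250 cells/well with compound at a final 1% DMSO and treated for 48 hours at 37° C. 1% DMSO served as the high control.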

H2030 = assay: Non Small Cell Lung Cancer proliferation assay (Alamar Blue reduction), H2030; format: cell-based, human; settings: Homo sapiens
In short: as §1

H3255 = assay: Non Small Cell Lung Cancer proliferation assay (Alamar Blue reduction), H3255; format: cell-based, human; settings: Homo sapiens
In short: as §1

H1734 = assay: Non Small Cell Lung Cancer proliferation assay (Alamar Blue reduction), H1734; format: cell-based, human; settings: Homo sapiens, NCI-H1734
In short: as §1

H23 = assay: Dose response study (Alamar Blue), H23; format: cell-based; settings: Homo sapiens, NCI-H23; H23; 12 point doubling dilution 10 uM to 5 nM; 48 h treatment, alamar blue additional 48 h; read-out: IC50 H23
Description: (§2) Dose response studies against 34 compounds from the pyridazinone and phenylfuran-carboxamide class were conducted. […] In addition, Tarceva was included in these dose response studies.
(§3) The dose response studies were done with the following standard procedure. First, the cells were counted and dispensed at 250 cells/well into 384-well microplates with compound. The cells were incubated for 48 hours at 37 C to complete treatment, and then alamar blue was added for an additional 48 hours. Finally, alamar blue reduction was measured and the data was loaded into ORIS, our data screening acquisition platform.

H460 = assay: Dose response study (Alamar Blue), H460; format: cell-based; settings: Homo sapiens, NCI-H460; H460; 12 point doubling dilution 10 uM to 5 nM; 48 h treatment, alamar blue additional 48 h; read-out: IC50 H460
Description: as §2, §3

H2122 = assay: Dose response study (Alamar Blue), H2122; format: cell-based; settings: Homo sapiens, NCI-H2122; H2122; 12 point doubling dilution 10 uM to 5 nM; 48 h treatment, alamar blue additional 48 h; read-out: IC50 H2122
Description: as §2, §3

[1] = NCI-H1650, 48 h, H1650, 12 point doubling dilution 10 uM to 5 nM, 48 h treatment, alamar blue additional 48 h, read-out: IC50 H1650
[2] = NCI-H1650, dose response 10 M to 5 nM, IC50, read-out: Dose Response (uM) H1650
[3] = NCI-H2030, 48 h, H2030, 12 point doubling dilution 10 uM to 5 nM, 48 h treatment, alamar blue additional 48 h, read-out: IC50 H2030
[4] = NCI-H2030, dose response 10 M to 5 nM, IC50, read-out: Dose Response (uM) H2030
[5] = NCI-H3255, 48 h, H3255, 12 point doubling dilution 10 uM to 5 nM, 48 h treatment, alamar blue additional 48 h, read-out: IC50 H3255
[6] = H1734, 12 point doubling dilution 10 uM to 5 nM, 48 h treatment, alamar blue additional 48 h, read-out: IC50 H1734
[7] = read-out: Dose Response (uM) H1734
[8] = NCI-H3255, dose response 10 M to 5 nM, IC50, read-out: Dose Response (uM) H3255

Row | Structure (SMILES) | IC50 (H1650; [1]) [µM] | IC50 (H1650; [2]) [µM] | IC50 (H2030; [3]) [µM] | IC50 (H2030; [4]) [µM] | IC50 (H3255; [5]) [µM] | IC50 (H1734; [6]) [µM] | IC50 (H1734; [7]) [µM] | IC50 (H23) [µM] | IC50 (H460) [µM] | IC50 (H2122) [µM] | IC50 (H3255; [8]) [µM]
1 | O=c1c(Cl)c(Cl)cnn1-c1ccc(Cl)cc1Cl [compound 267077] | > 10 | 0.56 | 3.55 | 1.27 | 8.75 | > 10 | 0.52 | 1.72 | > 10 | > 10 | –
2 | COc1cccc(-n2ncc(Br)c(Br)c2=O)c1 [compound 267083] | 1.08 | 1.06 | 0.26 | 0.57 | 0.65 | 1.36 | 1.31 | 0.21 | 0.91 | 1.15 | 0.35
3 | COCCOc1cccc(-n2ncc(Br)c(Br)c2=O)c1 [compound 267084] | 1.04 | 1.51 | 0.22 | 0.61 | 0.71 | 1.5 | 1.63 | 0.17 | 0.89 | 1.12 | 0.38
4 | Cc1cccc(-n2ncc(I)c(I)c2=O)c1 [compound 267085] | 3.16 | 1.93 | 0.81 | 0.99 | 2.13 | 2.99 | 1.94 | 0.72 | 3.49 | 2.34 | 0.71
5 | O=c1c(Cl)c(Cl)cnn1-c1ccccn1 [compound 267090] | 1.42 | 1.29 | 0.17 | 0.41 | 0.7 | 2.47 | 1.1 | 0.08 | 0.79 | 0.89 | 0.5
6 | NCCCOc1cccc(-n2ncc(Br)c(Br)c2=O)c1 [compound 273634] | 0.51 | 1.36 | 0.47 | 0.67 | 0.99 | 1.23 | 0.93 | 0.38 | 1.47 | 1.42 | 1.11
